Measurements taken from ChEMBL document CHEMBL3822440, “Semi-synthesis and antiproliferative evaluation of PEGylated pentacyclic triterpenes” (Eur J Med Chem, 2016).
Activity calls are given as the source filed them. The calls are words filed in the database; no cut-off is given here.

Columns and labels:
HepG2 [1] = experiment: Cell cycle arrest in human HepG2 cells assessed as accumulation at S phase at cytotoxic IC50 after 72 hrs by propidium iodide staining based flow cytometry (reference value: 54.71 +/- 2.37%); assay type: functional
HT-29 [2] = experiment: Induction of apoptosis in human HT-29 cells assessed as necrotic cells at cytotoxic IC50 after 72 hrs by Annexin V-FITC/propidium iodide staining based flow cytometry (reference value: 1.05 +/- 0.35%); assay type: functional
[3] = Disruption of mitochondrial membrane potential in mouse B16F10 cells assessed as rhodamine123 positive cells at cytotoxic IC50 after 72 hrs by propidium iodide staining based fluorescence spectroscopic analysis (reference value: 95.6 +/- 0.57%); assay type: functional, B16-F10
HepG2 [4] = experiment: Induction of apoptosis in human HepG2 cells assessed as spherical cell shape at cytotoxic IC50 after 72 hrs by Hoechst staining based fluorescence microscopic analysis; assay type: functional
HT-29 [5] = experiment: Disruption of mitochondrial membrane potential in human HT-29 cells assessed as rhodamine123 negative cells at cytotoxic IC50 after 72 hrs by propidium iodide staining based fluorescence spectroscopic analysis (reference value: 5.8 +/- 0.42%); assay type: functional
[6] = Cytotoxicity against mouse B16F10 cells assessed as growth inhibition after 72 hrs by MTT assay; assay type: functional, cell-based; conditions: B16-F10, 72 h
[7] = Induction of apoptosis in mouse B16F10 cells assessed as early apoptotic cells at cytotoxic IC50 after 72 hrs by Annexin V-FITC/propidium iodide staining based flow cytometry (reference value: 0.75 +/- 0.07%); assay type: functional, B16-F10
HepG2 [8] = experiment: Induction of apoptosis in human HepG2 cells assessed as live cells at cytotoxic IC50 after 72 hrs by Annexin V-FITC/propidium iodide staining based flow cytometry (reference value: 99.55 +/- 0.07%); assay type: functional
[9] = Induction of apoptosis in mouse B16F10 cells assessed as live cells at cytotoxic IC50 after 72 hrs by Annexin V-FITC/propidium iodide staining based flow cytometry (reference value: 97.55 +/- 0.5%); assay type: functional, B16-F10
HepG2 [10] = experiment: Induction of apoptosis in human HepG2 cells assessed as early apoptotic cells at cytotoxic IC50 after 72 hrs by Annexin V-FITC/propidium iodide staining based flow cytometry (reference value: 0.3 +/- 0.01%); assay type: functional
[11] = Induction of apoptosis in mouse B16F10 cells assessed as late apoptotic cells at cytotoxic IC50 after 72 hrs by Annexin V-FITC/propidium iodide staining based flow cytometry (reference value: 0.75 +/- 0.21%); assay type: functional, B16-F10
HT-29 [12] = experiment: Induction of apoptosis in human HT-29 cells assessed as live cells at cytotoxic IC50 after 72 hrs by Annexin V-FITC/propidium iodide staining based flow cytometry (reference value: 96.65 +/- 0.78%); assay type: functional
HT-29 [13] = experiment: Cytotoxicity against human HT-29 cells assessed as growth inhibition after 72 hrs by MTT assay; assay type: functional, cell-based; conditions: HT-29, 72 h
B16-F10 [14] = experiment: Induction of apoptosis in mouse B16F10 cells assessed as chromatin condensation at cytotoxic IC50 after 72 hrs by Hoechst staining based fluorescence microscopic analysis; assay type: functional, cell-based
B16-F10 [15] = experiment: Induction of apoptosis in mouse B16F10 cells assessed as loss of nuclear architecture at cytotoxic IC50 after 72 hrs by Hoechst staining based fluorescence microscopic analysis; assay type: functional, cell-based
HT-29 [16] = experiment: Induction of apoptosis in human HT-29 cells assessed as spherical cell shape at cytotoxic IC50 after 72 hrs by Hoechst staining based fluorescence microscopic analysis; assay type: functional
[17] = Cell cycle arrest in mouse B16F10 cells assessed as accumulation at S phase at cytotoxic IC50 after 72 hrs by propidium iodide staining based flow cytometry (reference value: 48.31 +/- 0.74%); assay type: functional, B16-F10
B16-F10 [18] = experiment: Induction of apoptosis in mouse B16F10 cells assessed as spherical cell shape at cytotoxic IC50 after 72 hrs by Hoechst staining based fluorescence microscopic analysis; assay type: functional

SMILES | Activity (HepG2 [1]) [%] | Activity (HT-29 [2]) [%] | Activity [3] [%] | Activity (HepG2 [4]) | Activity (HT-29 [5]) [%] | IC50 [6] [µM] | Activity [7] [%] | Activity (HepG2 [8]) [%] | Activity [9] [%] | Activity (HepG2 [10]) [%] | Activity [11] [%] | Activity (HT-29 [12]) [%] | IC50 (HT-29 [13]) [µM] | Activity (B16-F10 [14]) | Activity (B16-F10 [15]) | Activity (HT-29 [16]) | Activity [17] [%] | Activity (B16-F10 [18])
COCCOCCOCC(=O)O[C@@H]1C[C@]2(C)[C@H]3CC=C4[C@@H]5CC(C)(C)CC[C@]5(C(=O)O)CC[C@@]4(C)[C@]3(C)CC[C@H]2C(C)(C)[C@H]1OC(=O)COCCOCCOC | 26.7 | 0 | 75.05 | Active | 5.7 | 48.4 | 32.8 | 55.7 | 11.1 | 14.75 | 56.05 | 59.75 | 39.7 | Active | Active | Active | 12.07 | Active
CC1(C)CC[C@]2(C(=O)NCCCOCCOCCOCCCN)CC[C@]3(C)C(=CC[C@@H]4[C@@]5(C)C[C@@H](O)[C@H](O)C(C)(C)[C@@H]5CC[C@]43C)[C@@H]2C1 | 50.45 | 0.2 | 48.05 | Active | 36.95 | 11.4 | 60.25 | 19.75 | 0.9 | 46.75 | 38.65 | 61 | 11.8 | Active | Active | Active | 22.44 | Active
